Reference: ChEMBL document CHEMBL1136768, “Structure-activity relationships of (S,Z)-2-aminopurine methylenecyclopropane analogues of nucleosides. Variation of purine-6 substituents and activity against herpesviruses and hepatitis B virus” (J Med Chem, 2003)
pEC50: −log10 of the molar value. One block for each molecule: values may come before it.

Experiments:
Human alphaherpesvirus 1 [1] = assay: Concentration inhibiting the replication of HSV-1 in BSC-1 cells determined by ELISA assay; format: functional, organism-based, herpes simplex virus; settings: Human alphaherpesvirus 1, BSC-1
Daudi [2] = assay: Cytotoxicity in uninfected Daudi cells; format: functional; settings: Homo sapiens
Human alphaherpesvirus 1 [3] = assay: Concentration inhibiting the replication of HSV-1 in Vero cells determined by plaque reduction assay; format: functional, organism-based, herpes simplex virus; settings: Human alphaherpesvirus 1, Vero
Human alphaherpesvirus 2 = assay: Concentration inhibiting the replication of HSV-2 in Vero cells.; format: functional, organism-based; settings: Human alphaherpesvirus 2, Vero
Human gammaherpesvirus 4 [4] = assay: Concentration inhibiting the replication of EBV in H-1 cells by DNA hybridization assay; format: functional, organism-based; settings: human gammaherpesvirus 4, H-1
Human betaherpesvirus 5 = assay: Concentration inhibiting the replication of HCMV in HFF cells by plaque reduction assay; settings: Human betaherpesvirus 5, HFF
Hepatitis B virus = assay: Inhibition of the replication of HBV in 2.2.15 cells, by DNA hybridization assay; format: functional, organism-based; settings: HepG2 2.2.15
Human gammaherpesvirus 4 [5] = assay: Concentration inhibiting the replication of EBV in Daudi cells; format: functional, organism-based; settings: human gammaherpesvirus 4, Daudi
HFF [6] = assay: Cytotoxicity was scored on uninfected HFF cells not affected by virus in the HCMV (AD169 strain) by neutral red uptake; format: functional
CCRF-CEM = assay: Cytotoxicity in uninfected CEM cells; format: functional; settings: Homo sapiens
MEF = assay: Cytotoxicity in uninfected MEF cells; format: functional; settings: Mus musculus
Murid betaherpesvirus 1 = assay: Concentration inhibiting the replication of MCMV in MEF cells; format: functional, organism-based; settings: Murid betaherpesvirus 1, MEF
HFF [7] = assay: Cytotoxicity against proliferating HFF cells; format: functional; settings: Homo sapiens
Daudi [8] = assay: Concentration inhibiting the replication of EBV in Daudi cells by DNA hybridization assay; format: functional, cell-based; settings: Homo sapiens

SMILES: CC(C)Nc1nc(N)nc2c1ncn2/C=C1/C[C@@H]1CO
pEC50 (Human alphaherpesvirus 1 [1]): 4.82
CC50 (Daudi [2]): 168 µM
pEC50 (Human alphaherpesvirus 1 [3]): < 4.42
pEC50 (Human alphaherpesvirus 2): < 4.30
pEC50 (Human gammaherpesvirus 4 [4]): 4.96
pEC50 (Human betaherpesvirus 5): < 3.44
pEC50 (Hepatitis B virus): < 5.00
pEC50 (Human gammaherpesvirus 4 [5]): 4.44
CC50 (HFF [6]): > 365 µM
CC50 (CCRF-CEM): > 100 µM

SMILES: C=CCNc1nc(N)nc2c1ncn2/C=C1/C[C@@H]1CO
pEC50 (Human alphaherpesvirus 1 [1]): 5.40
CC50 (Daudi [2]): > 184 µM
pEC50 (Human alphaherpesvirus 1 [3]): 4.74
pEC50 (Human alphaherpesvirus 2): 4.68
pEC50 (Human gammaherpesvirus 4 [4]): 4.73
CC50 (MEF): > 368 µM
pEC50 (Human betaherpesvirus 5): < 3.43
pEC50 (Hepatitis B virus): 4.70
pEC50 (Human gammaherpesvirus 4 [5]): < 3.74
pEC50 (Murid betaherpesvirus 1): 6.48
CC50 (HFF [7]): > 368 µM
CC50 (CCRF-CEM): > 100 µM

SMILES: CCCSc1nc(N)nc2c1ncn2/C=C1/C[C@@H]1CO
pEC50 (Human alphaherpesvirus 1 [1]): 6.00
CC50 (Daudi [2]): > 172 µM
pEC50 (Human alphaherpesvirus 1 [3]): 5.05
pEC50 (Human alphaherpesvirus 2): 5.00
pEC50 (Human gammaherpesvirus 4 [4]): 5.20
CC50 (MEF): 343 µM
pEC50 (Human betaherpesvirus 5): < 4.16
pEC50 (Hepatitis B virus): 5.29
pEC50 (Human gammaherpesvirus 4 [5]): < 3.76
pEC50 (Murid betaherpesvirus 1): 5.85
CC50 (HFF [7]): 283 µM
CC50 (CCRF-CEM): > 100 µM

SMILES: CCCCCSc1nc(N)nc2c1ncn2/C=C1/C[C@@H]1CO
pEC50 (Human alphaherpesvirus 1 [1]): 5.15
CC50 (Daudi [2]): > 157 µM
pEC50 (Human alphaherpesvirus 1 [3]): 5.00
pEC50 (Human alphaherpesvirus 2): 4.85
pEC50 (Human gammaherpesvirus 4 [4]): < 4.70
CC50 (MEF): 171 µM
pEC50 (Human betaherpesvirus 5): < 4.10
pEC50 (Hepatitis B virus): < 4.70
pEC50 (Human gammaherpesvirus 4 [5]): 4.40
pEC50 (Murid betaherpesvirus 1): 5.82
CC50 (HFF [7]): 215 µM
CC50 (CCRF-CEM): 26 µM

SMILES: Nc1nc(NCCO)c2ncn(/C=C3/C[C@@H]3CO)c2n1
pEC50 (Human alphaherpesvirus 1 [1]): < 4.00
CC50 (Daudi [2]): > 181 µM
pEC50 (Human alphaherpesvirus 1 [3]): < 4.30
pEC50 (Human alphaherpesvirus 2): < 4.30
pEC50 (Human gammaherpesvirus 4 [4]): < 4.70
CC50 (MEF): > 362 µM
pEC50 (Human betaherpesvirus 5): < 4.22
pEC50 (Hepatitis B virus): < 4.70
pEC50 (Human gammaherpesvirus 4 [5]): < 3.74
pEC50 (Murid betaherpesvirus 1): 4.92
CC50 (CCRF-CEM): > 100 µM

SMILES: Nc1nc(NCc2ccccc2)c2ncn(/C=C3/C[C@@H]3CO)c2n1
pEC50 (Human alphaherpesvirus 1 [1]): < 4.30
pEC50 (Human alphaherpesvirus 1 [3]): < 4.00
pEC50 (Human alphaherpesvirus 2): 4.28
pEC50 (Human gammaherpesvirus 4 [4]): < 4.70
CC50 (MEF): 25 µM
pEC50 (Human betaherpesvirus 5): < 4.21
pEC50 (Hepatitis B virus): < 4.70
pEC50 (Human gammaherpesvirus 4 [5]): < 3.81
CC50 (HFF [6]): > 310 µM
CC50 (CCRF-CEM): > 50 µM

SMILES: C#CCNc1nc(N)nc2c1ncn2/C=C1/C[C@@H]1CO
pEC50 (Human alphaherpesvirus 1 [1]): 5.22
CC50 (Daudi [2]): > 185 µM
pEC50 (Human alphaherpesvirus 1 [3]): 4.70
pEC50 (Human alphaherpesvirus 2): 4.30
pEC50 (Human gammaherpesvirus 4 [4]): ~5.70
CC50 (MEF): > 370 µM
pEC50 (Human betaherpesvirus 5): < 4.13
pEC50 (Hepatitis B virus): < 5.00
pEC50 (Human gammaherpesvirus 4 [5]): < 3.73
pEC50 (Murid betaherpesvirus 1): 6.43
CC50 (HFF [7]): 306 µM
CC50 (CCRF-CEM): > 100 µM

Further lines, with some results ahead:

pEC50 (Human alphaherpesvirus 1 [1]): 5.15
pEC50 (Human alphaherpesvirus 1 [3]): 5.52
pEC50 (Human alphaherpesvirus 2): 5.40
pEC50 (Human gammaherpesvirus 4 [4]): 5.14
pEC50 (Human betaherpesvirus 5): < 4.18
pEC50 (Hepatitis B virus): 5.14
pEC50 (Human gammaherpesvirus 4 [5]): 4.63
pEC50 (Murid betaherpesvirus 1): 5.84
SMILES: CCCCCOc1nc(N)nc2c1ncn2/C=C1/C[C@@H]1CO
CC50 (Daudi [2]): > 165 µM
CC50 (MEF): 224 µM
CC50 (HFF [7]): 41.9 µM
CC50 (CCRF-CEM): 87 µM

pEC50 (Human alphaherpesvirus 1 [1]): 5.15
pEC50 (Human alphaherpesvirus 1 [3]): 5.10
pEC50 (Human alphaherpesvirus 2): 4.92
pEC50 (Human gammaherpesvirus 4 [4]): 4.90
pEC50 (Human betaherpesvirus 5): 5.08
pEC50 (Hepatitis B virus): 4.90
pEC50 (Human gammaherpesvirus 4 [5]): 4.53
pEC50 (Murid betaherpesvirus 1): 6.46
SMILES: Nc1nc(OCC2CC2)c2ncn(/C=C3/C[C@@H]3CO)c2n1
CC50 (Daudi [2]): 112 µM
CC50 (MEF): 278 µM
CC50 (HFF [7]): 112 µM
CC50 (CCRF-CEM): 41 µM

pEC50 (Human alphaherpesvirus 1 [1]): 4.70
pEC50 (Human alphaherpesvirus 1 [3]): 4.64
pEC50 (Human alphaherpesvirus 2): 4.80
pEC50 (Human gammaherpesvirus 4 [4]): 6.36
pEC50 (Human betaherpesvirus 5): 5.00
pEC50 (Hepatitis B virus): < 5.00
pEC50 (Human gammaherpesvirus 4 [5]): 5.42
pEC50 (Daudi [8]): 6.00
pEC50 (Murid betaherpesvirus 1): 6.62
SMILES: COc1nc(N)nc2c1ncn2/C=C1/C[C@@H]1CO
CC50 (Daudi [2]): 146 µM
CC50 (MEF): 351 µM
CC50 (HFF [7]): 15.8 µM
CC50 (CCRF-CEM): 98 µM

pEC50 (Human alphaherpesvirus 1 [1]): 4.70
pEC50 (Human alphaherpesvirus 1 [3]): 4.82
pEC50 (Human alphaherpesvirus 2): 4.66
pEC50 (Human gammaherpesvirus 4 [4]): 6.18
pEC50 (Human betaherpesvirus 5): 4.92
pEC50 (Hepatitis B virus): < 5.00
pEC50 (Human gammaherpesvirus 4 [5]): 5.21
pEC50 (Daudi [8]): 6.07
pEC50 (Murid betaherpesvirus 1): 6.82
SMILES: Nc1nc(NC2CC2)c2ncn(/C=C3/C[C@@H]3CO)c2n1
CC50 (Daudi [2]): 176 µM
CC50 (MEF): 367 µM
CC50 (HFF [7]): 213 µM
CC50 (CCRF-CEM): 70 µM

pEC50 (Human alphaherpesvirus 1 [1]): 4.82
pEC50 (Human alphaherpesvirus 1 [3]): < 4.30
pEC50 (Human alphaherpesvirus 2): < 4.30
pEC50 (Human gammaherpesvirus 4 [4]): < 4.70
pEC50 (Human betaherpesvirus 5): 3.74
pEC50 (Hepatitis B virus): < 4.70
pEC50 (Human gammaherpesvirus 4 [5]): < 3.80
SMILES: Nc1nc(NC2CCCCC2)c2ncn(/C=C3/C[C@@H]3CO)c2n1
CC50 (Daudi [2]): > 159 µM
CC50 (HFF [6]): > 318 µM
CC50 (CCRF-CEM): > 100 µM

pEC50 (Human alphaherpesvirus 1 [1]): < 4.00
pEC50 (Human alphaherpesvirus 1 [3]): < 4.30
pEC50 (Human alphaherpesvirus 2): < 4.30
pEC50 (Human gammaherpesvirus 4 [4]): < 4.70
pEC50 (Human betaherpesvirus 5): < 4.10
pEC50 (Hepatitis B virus): 4.70
pEC50 (Human gammaherpesvirus 4 [5]): < 5.10
pEC50 (Murid betaherpesvirus 1): < 4.80
SMILES: Nc1nc(S)c2ncn(/C=C3/C[C@@H]3CO)c2n1
CC50 (Daudi [2]): 35.3 µM
CC50 (MEF): 64 µM
CC50 (CCRF-CEM): 29 µM

pEC50 (Human alphaherpesvirus 1 [1]): 5.82
pEC50 (Human alphaherpesvirus 1 [3]): 5.15
pEC50 (Human alphaherpesvirus 2): 5.10
pEC50 (Human gammaherpesvirus 4 [4]): 5.96
pEC50 (Human betaherpesvirus 5): 5.64
pEC50 (Hepatitis B virus): 4.96
pEC50 (Human gammaherpesvirus 4 [5]): < 3.74
pEC50 (Murid betaherpesvirus 1): 6.54
SMILES: C=CCOc1nc(N)nc2c1ncn2/C=C1/C[C@@H]1CO
CC50 (Daudi [2]): > 183 µM
CC50 (MEF): > 366 µM
CC50 (HFF [7]): 220 µM
CC50 (CCRF-CEM): 26 µM

pEC50 (Human alphaherpesvirus 1 [1]): 4.35
pEC50 (Human alphaherpesvirus 1 [3]): 4.30
pEC50 (Human alphaherpesvirus 2): < 4.30
pEC50 (Human gammaherpesvirus 4 [4]): 6.33
pEC50 (Human betaherpesvirus 5): 4.26
pEC50 (Hepatitis B virus): < 5.00
pEC50 (Human gammaherpesvirus 4 [5]): 5.64
pEC50 (Daudi [8]): > 6.47
pEC50 (Murid betaherpesvirus 1): 6.41
SMILES: Nc1nc(O)c2ncn(/C=C3/C[C@@H]3CO)c2n1
CC50 (Daudi [2]): > 215 µM
CC50 (MEF): > 429 µM
CC50 (HFF [7]): 257 µM
CC50 (CCRF-CEM): 90 µM

pEC50 (Human alphaherpesvirus 1 [1]): 5.60
pEC50 (Human alphaherpesvirus 1 [3]): 4.60
pEC50 (Human alphaherpesvirus 2): < 4.30
pEC50 (Human gammaherpesvirus 4 [4]): < 4.70
pEC50 (Human betaherpesvirus 5): 4.97
pEC50 (Hepatitis B virus): < 4.70
pEC50 (Human gammaherpesvirus 4 [5]): 6.25
pEC50 (Daudi [8]): 5.15
pEC50 (Murid betaherpesvirus 1): 5.77
SMILES: Nc1nc(NCC2CC2)c2ncn(/C=C3/C[C@@H]3CO)c2n1
CC50 (Daudi [2]): > 175 µM
CC50 (MEF): 279 µM
CC50 (CCRF-CEM): > 100 µM

pEC50 (Human alphaherpesvirus 1 [1]): 6.00
pEC50 (Human alphaherpesvirus 1 [3]): 5.40
pEC50 (Human alphaherpesvirus 2): 5.00
pEC50 (Human gammaherpesvirus 4 [4]): 5.82
pEC50 (Human betaherpesvirus 5): 5.10
pEC50 (Hepatitis B virus): 5.39
pEC50 (Human gammaherpesvirus 4 [5]): < 3.74
pEC50 (Murid betaherpesvirus 1): > 6.96
SMILES: CCCOc1nc(N)nc2c1ncn2/C=C1/C[C@@H]1CO
CC50 (Daudi [2]): > 182 µM
CC50 (MEF): 363 µM
CC50 (HFF [7]): 69.4 µM
CC50 (CCRF-CEM): 32 µM
